Each structure is given as a SMILES string. Calls of active or inactive are those of the source. The rule behind the calls is not given here.

Assay [1] addresses Serine/threonine-protein kinase N1 (Homo sapiens) (UniProt Q16512). As to the kind of experiment: Inhibition of PRK1 at 10 uM.
Assay [2] addresses Vascular endothelial growth factor receptor 2 (Homo sapiens) (UniProt P35968). Briefly: Inhibition of VEGFR2 at 10 uM.
Assay [3] concerns the target RAC-alpha serine/threonine-protein kinase (Homo sapiens) (UniProt P31749). Briefly: Inhibition of AKT1 at 10 uM.
Assay [4] has as its target Serine/threonine-protein kinase PLK1 (Homo sapiens) (UniProt P53350). Briefly: Inhibition of PLK1 at 10 uM.
For assay [5], the target named is Focal adhesion kinase 1 (Homo sapiens) (UniProt Q05397). As to the kind of experiment: Inhibition of FAK at 10 uM.
In assay [6] the target is T1, NUAK family SNF1-like kinase 1 (Homo sapiens) (UniProt O60285).
T1 sequence (whole entry): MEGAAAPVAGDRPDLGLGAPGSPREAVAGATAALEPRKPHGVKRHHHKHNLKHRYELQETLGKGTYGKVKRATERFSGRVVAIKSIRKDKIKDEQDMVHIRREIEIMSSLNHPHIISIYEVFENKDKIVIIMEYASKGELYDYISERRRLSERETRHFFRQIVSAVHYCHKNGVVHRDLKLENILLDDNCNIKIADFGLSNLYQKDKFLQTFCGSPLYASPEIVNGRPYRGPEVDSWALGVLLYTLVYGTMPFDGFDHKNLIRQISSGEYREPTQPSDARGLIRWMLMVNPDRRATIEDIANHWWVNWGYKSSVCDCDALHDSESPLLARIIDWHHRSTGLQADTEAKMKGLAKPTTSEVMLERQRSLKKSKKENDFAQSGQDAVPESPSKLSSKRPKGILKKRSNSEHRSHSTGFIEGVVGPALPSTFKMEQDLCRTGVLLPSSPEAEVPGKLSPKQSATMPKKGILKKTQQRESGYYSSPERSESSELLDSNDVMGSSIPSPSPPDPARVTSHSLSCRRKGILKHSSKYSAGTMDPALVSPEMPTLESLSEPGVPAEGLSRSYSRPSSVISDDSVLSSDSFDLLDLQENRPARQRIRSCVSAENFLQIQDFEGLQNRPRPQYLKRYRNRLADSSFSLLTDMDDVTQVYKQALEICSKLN
As to the kind of experiment: Inhibition of ARK5 at 10 uM.

Assay [7] deals with Casein kinase II subunit alpha (Homo sapiens) (UniProt P68400). As to the kind of experiment: Inhibition of CK2alpha1 at 10 uM.
Assay [8] addresses Aurora kinase B (Homo sapiens) (UniProt Q96GD4). As to the kind of experiment: Inhibition of AuroraB at 10 uM.
Assay [9] deals with Insulin-like growth factor 1 receptor (Homo sapiens) (UniProt P08069). As to the kind of experiment: Inhibition of IGF1R at 10 uM.
Assay [10] concerns the target Tyrosine-protein kinase receptor UFO (Homo sapiens) (UniProt P30530). As to the kind of experiment: Inhibition of AXL at 10 uM.
The target of assay [11] is T2, Mitogen-activated protein kinase 14 (Homo sapiens, UniProt Q16539). As to the kind of experiment: Inhibition of p38alpha by immunosorbent based kinase assay.
The target of assay [12] is T3, Serine/threonine-protein kinase PLK4 (Homo sapiens) (UniProt O00444).
T3 sequence (whole entry): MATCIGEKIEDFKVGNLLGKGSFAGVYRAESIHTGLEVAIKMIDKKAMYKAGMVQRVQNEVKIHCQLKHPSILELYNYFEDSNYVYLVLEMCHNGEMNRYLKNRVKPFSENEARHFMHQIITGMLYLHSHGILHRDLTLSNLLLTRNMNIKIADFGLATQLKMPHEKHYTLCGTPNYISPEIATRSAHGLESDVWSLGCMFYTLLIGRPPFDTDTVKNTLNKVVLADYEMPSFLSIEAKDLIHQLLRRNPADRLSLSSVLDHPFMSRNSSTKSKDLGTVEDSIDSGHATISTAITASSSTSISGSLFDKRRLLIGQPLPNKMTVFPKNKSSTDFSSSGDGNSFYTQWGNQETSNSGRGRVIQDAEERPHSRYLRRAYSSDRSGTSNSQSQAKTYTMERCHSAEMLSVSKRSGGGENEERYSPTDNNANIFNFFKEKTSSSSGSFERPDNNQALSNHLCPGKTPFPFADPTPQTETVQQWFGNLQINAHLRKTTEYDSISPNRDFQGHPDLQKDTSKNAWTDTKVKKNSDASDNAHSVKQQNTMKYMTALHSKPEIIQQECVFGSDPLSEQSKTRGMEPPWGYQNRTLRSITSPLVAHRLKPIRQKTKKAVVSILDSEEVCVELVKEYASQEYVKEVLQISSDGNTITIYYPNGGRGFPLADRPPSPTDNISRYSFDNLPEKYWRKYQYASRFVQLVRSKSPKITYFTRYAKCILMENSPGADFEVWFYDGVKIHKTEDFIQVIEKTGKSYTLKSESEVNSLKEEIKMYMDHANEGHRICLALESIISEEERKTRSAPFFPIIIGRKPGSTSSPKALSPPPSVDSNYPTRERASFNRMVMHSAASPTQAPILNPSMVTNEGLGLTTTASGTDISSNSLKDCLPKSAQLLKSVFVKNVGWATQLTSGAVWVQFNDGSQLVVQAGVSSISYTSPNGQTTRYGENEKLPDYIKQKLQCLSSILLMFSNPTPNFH
Briefly: Inhibition of SAK at 10 uM.

Assay [13] concerns the target Insulin receptor (Homo sapiens) (UniProt P06213). As to the kind of experiment: Inhibition of INSR at 10 uM.
The target of assay [14] is BDNF/NT-3 growth factors receptor (Homo sapiens) (UniProt Q16620). Briefly: Inhibition of TRKB at 10 uM.
Assay [15] concerns Serine/threonine-protein kinase B-raf (Homo sapiens), P15056 [V600E]. Briefly: Inhibition of BRAF V600E mutant at 10 uM.
In assay [16] the target is Proto-oncogene tyrosine-protein kinase Src (Homo sapiens) (UniProt P12931). Briefly: Inhibition of SRC at 10 uM.
Assay [17] has as its target Hepatocyte growth factor receptor (Homo sapiens) (UniProt P08581). As to the kind of experiment: Inhibition of MET at 10 uM.
Assay [18] deals with T2, Mitogen-activated protein kinase 14. As to the kind of experiment: Inhibition of p38alpha-dependent TNFalpha production in human whole blood.

Chain of Tyrosine-protein kinase receptor UFO (Homo sapiens) (P30530 whole entry): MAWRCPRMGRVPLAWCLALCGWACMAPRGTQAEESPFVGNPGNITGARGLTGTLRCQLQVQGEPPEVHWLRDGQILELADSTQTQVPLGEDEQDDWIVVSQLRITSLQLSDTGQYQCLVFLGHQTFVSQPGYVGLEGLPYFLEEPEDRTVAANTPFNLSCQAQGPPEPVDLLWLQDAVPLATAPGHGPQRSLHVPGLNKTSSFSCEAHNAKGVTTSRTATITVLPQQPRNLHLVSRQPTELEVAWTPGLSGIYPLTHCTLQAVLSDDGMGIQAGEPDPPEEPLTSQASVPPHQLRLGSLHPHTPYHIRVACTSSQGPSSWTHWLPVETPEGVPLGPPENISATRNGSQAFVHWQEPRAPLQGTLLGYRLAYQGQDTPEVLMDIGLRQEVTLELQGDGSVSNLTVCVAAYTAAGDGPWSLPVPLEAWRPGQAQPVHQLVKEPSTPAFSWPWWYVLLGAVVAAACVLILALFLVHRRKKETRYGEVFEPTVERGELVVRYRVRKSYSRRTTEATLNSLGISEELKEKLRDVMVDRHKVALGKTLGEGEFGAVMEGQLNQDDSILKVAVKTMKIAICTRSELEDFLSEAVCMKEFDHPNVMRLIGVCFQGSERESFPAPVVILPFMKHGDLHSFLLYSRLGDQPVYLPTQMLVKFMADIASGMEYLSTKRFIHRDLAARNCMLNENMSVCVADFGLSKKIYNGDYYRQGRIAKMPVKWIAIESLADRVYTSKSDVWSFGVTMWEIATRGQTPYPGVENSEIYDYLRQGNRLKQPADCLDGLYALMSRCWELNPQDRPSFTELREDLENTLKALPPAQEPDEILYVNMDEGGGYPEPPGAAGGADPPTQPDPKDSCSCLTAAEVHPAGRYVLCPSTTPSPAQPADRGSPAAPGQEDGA
Chain of Serine/threonine-protein kinase B-raf (Homo sapiens), P15056 [V600E] (P15056 whole entry V600E): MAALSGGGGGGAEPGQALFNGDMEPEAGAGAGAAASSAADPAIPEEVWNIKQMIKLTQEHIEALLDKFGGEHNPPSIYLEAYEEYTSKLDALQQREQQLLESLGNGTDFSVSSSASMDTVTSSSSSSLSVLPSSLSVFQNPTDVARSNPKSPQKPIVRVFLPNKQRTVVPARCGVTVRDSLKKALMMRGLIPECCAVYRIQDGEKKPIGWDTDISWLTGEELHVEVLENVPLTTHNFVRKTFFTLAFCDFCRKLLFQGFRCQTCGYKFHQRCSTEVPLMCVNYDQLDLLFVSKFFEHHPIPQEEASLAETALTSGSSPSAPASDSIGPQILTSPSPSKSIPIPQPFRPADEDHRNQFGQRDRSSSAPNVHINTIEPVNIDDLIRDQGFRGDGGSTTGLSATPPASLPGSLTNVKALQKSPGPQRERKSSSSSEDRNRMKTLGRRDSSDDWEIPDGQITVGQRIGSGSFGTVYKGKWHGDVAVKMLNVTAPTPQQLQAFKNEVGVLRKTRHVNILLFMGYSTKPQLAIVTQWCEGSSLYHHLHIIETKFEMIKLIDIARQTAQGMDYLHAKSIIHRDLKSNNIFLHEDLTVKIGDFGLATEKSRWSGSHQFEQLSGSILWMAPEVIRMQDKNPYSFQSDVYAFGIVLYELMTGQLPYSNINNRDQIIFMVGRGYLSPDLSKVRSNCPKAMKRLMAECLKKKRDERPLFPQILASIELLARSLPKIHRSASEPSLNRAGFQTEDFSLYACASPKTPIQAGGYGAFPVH
Chain of Hepatocyte growth factor receptor (Homo sapiens) (P08581 whole entry): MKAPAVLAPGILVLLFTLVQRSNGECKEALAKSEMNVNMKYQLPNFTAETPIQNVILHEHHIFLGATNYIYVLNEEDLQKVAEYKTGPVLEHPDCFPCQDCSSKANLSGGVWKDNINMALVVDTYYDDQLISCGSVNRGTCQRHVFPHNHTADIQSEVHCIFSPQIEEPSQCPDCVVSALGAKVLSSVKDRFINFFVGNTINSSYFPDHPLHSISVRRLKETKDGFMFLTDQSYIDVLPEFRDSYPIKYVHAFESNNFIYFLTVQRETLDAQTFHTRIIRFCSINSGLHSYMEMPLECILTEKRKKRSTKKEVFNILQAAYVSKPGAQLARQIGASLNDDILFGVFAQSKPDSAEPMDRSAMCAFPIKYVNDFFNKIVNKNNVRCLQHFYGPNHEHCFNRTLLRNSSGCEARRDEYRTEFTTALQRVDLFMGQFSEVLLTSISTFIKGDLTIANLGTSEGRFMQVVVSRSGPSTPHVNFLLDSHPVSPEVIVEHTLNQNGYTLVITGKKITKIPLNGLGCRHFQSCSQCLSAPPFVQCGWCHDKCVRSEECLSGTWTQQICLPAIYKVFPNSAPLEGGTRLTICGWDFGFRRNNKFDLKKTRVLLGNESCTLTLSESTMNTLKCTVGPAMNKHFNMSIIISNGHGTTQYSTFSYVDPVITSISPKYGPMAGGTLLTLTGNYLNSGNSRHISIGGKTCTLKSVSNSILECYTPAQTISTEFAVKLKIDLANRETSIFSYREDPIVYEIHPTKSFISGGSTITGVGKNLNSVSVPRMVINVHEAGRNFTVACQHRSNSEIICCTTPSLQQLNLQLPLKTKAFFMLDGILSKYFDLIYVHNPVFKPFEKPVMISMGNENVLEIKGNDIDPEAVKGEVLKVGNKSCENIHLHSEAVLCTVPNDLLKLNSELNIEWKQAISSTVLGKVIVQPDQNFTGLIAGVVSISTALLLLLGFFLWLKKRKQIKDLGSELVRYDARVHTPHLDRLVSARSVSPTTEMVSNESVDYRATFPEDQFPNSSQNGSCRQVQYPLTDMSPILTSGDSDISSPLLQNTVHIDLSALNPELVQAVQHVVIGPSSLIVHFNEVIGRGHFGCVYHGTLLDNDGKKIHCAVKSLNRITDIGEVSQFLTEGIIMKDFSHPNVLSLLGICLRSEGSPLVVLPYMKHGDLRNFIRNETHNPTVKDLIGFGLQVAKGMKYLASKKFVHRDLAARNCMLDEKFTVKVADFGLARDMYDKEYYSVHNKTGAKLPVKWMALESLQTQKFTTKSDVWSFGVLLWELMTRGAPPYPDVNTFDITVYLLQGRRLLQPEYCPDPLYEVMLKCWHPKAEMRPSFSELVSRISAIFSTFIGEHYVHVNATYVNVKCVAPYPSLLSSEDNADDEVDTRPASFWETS
Chain of Proto-oncogene tyrosine-protein kinase Src (Homo sapiens) (P12931 2-536 limits assumed): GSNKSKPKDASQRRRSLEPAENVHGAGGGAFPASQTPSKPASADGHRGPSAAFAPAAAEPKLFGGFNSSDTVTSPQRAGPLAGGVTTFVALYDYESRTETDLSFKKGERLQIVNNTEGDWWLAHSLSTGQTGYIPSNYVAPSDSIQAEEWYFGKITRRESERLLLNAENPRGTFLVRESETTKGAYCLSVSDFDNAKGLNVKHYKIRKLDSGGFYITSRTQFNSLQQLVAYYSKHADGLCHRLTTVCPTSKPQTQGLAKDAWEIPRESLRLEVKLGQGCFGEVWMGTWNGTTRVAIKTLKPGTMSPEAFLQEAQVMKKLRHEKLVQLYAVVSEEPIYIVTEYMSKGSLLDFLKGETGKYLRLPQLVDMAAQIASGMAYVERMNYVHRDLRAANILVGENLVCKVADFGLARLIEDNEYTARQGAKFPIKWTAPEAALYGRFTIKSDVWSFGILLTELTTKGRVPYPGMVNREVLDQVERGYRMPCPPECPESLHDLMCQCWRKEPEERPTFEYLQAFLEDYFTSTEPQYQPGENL
Chain of BDNF/NT-3 growth factors receptor (Homo sapiens) (Q16620 32-822 limits assumed): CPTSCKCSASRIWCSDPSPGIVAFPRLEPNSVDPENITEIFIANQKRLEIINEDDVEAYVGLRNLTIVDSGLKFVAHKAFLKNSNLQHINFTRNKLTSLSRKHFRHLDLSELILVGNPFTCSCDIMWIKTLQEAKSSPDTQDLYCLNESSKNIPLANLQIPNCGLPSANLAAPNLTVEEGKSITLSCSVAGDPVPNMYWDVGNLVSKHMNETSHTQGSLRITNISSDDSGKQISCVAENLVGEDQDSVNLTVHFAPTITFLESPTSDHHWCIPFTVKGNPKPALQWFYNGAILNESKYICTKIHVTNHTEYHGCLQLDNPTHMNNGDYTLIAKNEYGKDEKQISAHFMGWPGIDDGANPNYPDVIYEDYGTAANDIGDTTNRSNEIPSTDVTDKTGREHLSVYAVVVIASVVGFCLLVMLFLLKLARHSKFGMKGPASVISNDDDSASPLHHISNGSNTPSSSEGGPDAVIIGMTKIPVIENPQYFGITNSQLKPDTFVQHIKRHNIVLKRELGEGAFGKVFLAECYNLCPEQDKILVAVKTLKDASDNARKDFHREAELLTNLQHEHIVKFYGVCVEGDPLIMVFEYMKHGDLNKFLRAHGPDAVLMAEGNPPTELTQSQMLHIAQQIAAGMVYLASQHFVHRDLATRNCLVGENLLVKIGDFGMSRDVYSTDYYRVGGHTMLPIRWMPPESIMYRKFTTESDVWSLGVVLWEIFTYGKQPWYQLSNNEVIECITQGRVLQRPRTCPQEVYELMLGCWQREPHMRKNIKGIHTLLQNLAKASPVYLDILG
Chain of RAC-alpha serine/threonine-protein kinase (Homo sapiens) (P31749 whole entry): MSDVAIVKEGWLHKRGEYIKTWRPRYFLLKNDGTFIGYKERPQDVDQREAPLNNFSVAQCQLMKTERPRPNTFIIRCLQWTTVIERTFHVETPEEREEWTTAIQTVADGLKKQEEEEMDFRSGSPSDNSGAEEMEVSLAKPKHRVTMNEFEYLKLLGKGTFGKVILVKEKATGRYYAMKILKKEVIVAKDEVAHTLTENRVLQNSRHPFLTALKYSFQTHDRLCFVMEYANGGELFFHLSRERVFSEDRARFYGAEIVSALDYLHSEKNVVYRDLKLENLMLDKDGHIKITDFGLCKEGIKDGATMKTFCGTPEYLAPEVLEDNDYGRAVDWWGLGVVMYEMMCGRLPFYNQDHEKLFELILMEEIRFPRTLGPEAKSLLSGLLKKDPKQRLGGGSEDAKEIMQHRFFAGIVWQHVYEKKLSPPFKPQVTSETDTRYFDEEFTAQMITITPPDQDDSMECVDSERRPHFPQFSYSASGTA

In the case of `COc1ccc2c(c1)C(=O)c1ccc(Nc3ccccc3C(F)(F)F)cc1CC2`, the inhibition entry in [1], in assay [2], in assay [3], in assay [4], in assay [5] and in [6] was “inactive” in each case. For the same compound, the inhibition result in assay [7], in assay [8], in [9], in assay [10], in assay [12] and in assay [13] was “inactive” in each case. Further, the inhibition result in assay [14], in assay [15], in assay [16] and in [17] was “inactive” throughout. In addition, the figures for the IC50 in assay [11] and in assay [18] were 400 nM and 33600 nM, respectively.

`Nc1ccccc1Nc1ccc2c(c1)CCc1ccc(OC[C@H](O)CO)cc1C2=O`: the inhibition entry in assay [1], in assay [2], in [3], in assay [4], in assay [5] and in assay [6] was “inactive” each time. Besides, the inhibition result in assay [7], in assay [8], in assay [9], in [10], in [12] and in [13] was “inactive” throughout. In addition, the inhibition entry in assay [14], in assay [15], in [16] and in assay [17] was “inactive” throughout. Further, the IC50 in assay [11] amounted to 20 nM; in assay [18], 80 nM.

On to `CC1(C)OC[C@H](COc2ccc3c(c2)C(=O)c2ccc(Nc4ccc(F)cc4F)cc2CC3)O1`, for which the inhibition result in assay [1], in assay [2], in [3], in assay [4], in assay [5] and in assay [6] was “inactive” throughout. Further, the inhibition result in assay [7], in [8], in [9], in assay [10], in [12] and in assay [13] was “inactive” each time. Besides, the inhibition result in [14], in assay [15], in assay [16] and in assay [17] was “inactive” in each case. The IC50 was 20 nM in assay [11] and 230 nM in [18].

As to `COc1ccc2c(c1)C(=O)c1ccc(Nc3ccc(F)cc3C)cc1CC2`, the inhibition result in [1], in [2], in [3], in assay [4], in assay [5] and in assay [6] was “inactive” in each case. Also, the inhibition result in [7], in assay [8], in [9], in assay [10], in [12] and in assay [13] was “inactive” each time. In addition, the inhibition result in assay [14], in assay [15], in assay [16] and in assay [17] was “inactive” in each case. Also, the IC50 in assay [11] turned out to be 60 nM; in assay [18] it was 3900 nM.

As to `COc1cccc2c1CCc1cc(Nc3ccc(F)cc3F)ccc1C2=O`, the inhibition entry in [1], in [2], in [3], in assay [4], in assay [5] and in assay [6] was “inactive” each time. Moreover, the inhibition entry in [7], in [8], in assay [9], in [10], in assay [12] and in assay [13] was “inactive” each time. Moreover, the inhibition entry in assay [14], in [15], in assay [16] and in assay [17] was “inactive” each time. The IC50 in [11] was 80 nM; in [18], 78700 nM.

Regarding `O=C1c2ccc(Nc3ccc(F)cc3F)cc2CCc2cc(OC[C@H](O)CO)ccc21`, the inhibition result in assay [1], in assay [2], in [3], in [4], in assay [5] and in [6] was “inactive” each time. In addition, the inhibition result in [7], in [8], in [9], in assay [10], in assay [12] and in [13] was “inactive” each time. In addition, the inhibition entry in assay [14], in assay [15], in assay [16] and in [17] was “inactive” each time. The figures for the IC50 in [11] and in assay [18] were 30 nM and 10400 nM, respectively.

On to `COc1ccc2c(c1)C(=O)c1ccc(Nc3ccc(F)c(C)c3)cc1CC2`, for which the inhibition result in assay [1], in [2], in assay [3], in assay [4], in assay [5] and in [6] was “inactive” throughout. The inhibition result in assay [7], in assay [8], in assay [9], in assay [10], in assay [12] and in assay [13] was “inactive” in each case. The inhibition result in assay [14], in [15], in assay [16] and in assay [17] was “inactive” throughout. Also, the results for the IC50 in assay [11] and in assay [18] were 40 nM and 1900 nM, respectively.

As usually defined, the IC50 is the concentration that inhibits the measured activity by half. High values mean lower potency, low ones higher potency.

Source of the values: ChEMBL document CHEMBL2150974 (J Med Chem, 2012).
